Experimental data: PubChem BioAssay AID256 (DTP/NCI, 2004)
Several values for one entry are separate records, joined by “and”; a condition that tells them apart may be missing. Identical values can stand only once. Toxic doses and inconclusive results are not listed. Rule for the calls: active = survival T/C of 150% or more; inactive = T/C below 125% in these data.

System: CD2F1 mice, L1210 leukemia ip, survival T/C
Assay: NCI In Vivo Anticancer Drug Screen. Data for tumor model L1210 Leukemia (intraperitoneal) in CD2F1 (CDF1) mice
Conditions: higher = longer survival
Outline: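 Antitumor effect is scored in animals hosting a serially transplanted tumor. Values compare compound-dosed animals against vehicle-only controls as a simple quotient.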

[1] = endpoint: mean survival time, dose: 100.0 mg/kg/injection, schedule: Q04DX002 (ip), vehicle: saline with Tween-80
[2] = endpoint: mean survival time, dose: 200.0 mg/kg/injection, schedule: Q04DX002 (ip), vehicle: saline with Tween-80
[3] = endpoint: mean survival time, dose: 400.0 mg/kg/injection, schedule: Q04DX002 (ip), vehicle: saline with Tween-80
[4] = endpoint: mean survival time, dose: 100.0 mg/kg/injection, schedule: Q04DX003 (ip), vehicle: saline with Tween-80
[5] = endpoint: mean survival time, dose: 200.0 mg/kg/injection, schedule: Q04DX003 (ip), vehicle: saline with Tween-80
[6] = endpoint: mean survival time, dose: 400.0 mg/kg/injection, schedule: Q04DX003 (ip), vehicle: saline with Tween-80
[7] = endpoint: mean survival time, dose: 50.0 mg/kg/injection, schedule: Q01DX009 (ip), vehicle: saline with Tween-80
[8] = endpoint: mean survival time, dose: 100.0 mg/kg/injection, schedule: Q01DX009 (ip), vehicle: saline with Tween-80
[9] = endpoint: mean survival time, dose: 25.0 mg/kg/injection, schedule: Q04DX002 (ip), vehicle: saline with Tween-80
[10] = endpoint: mean survival time, dose: 50.0 mg/kg/injection, schedule: Q04DX002 (ip), vehicle: saline with Tween-80
[11] = endpoint: mean survival time, dose: 100.0 mg/kg/injection, schedule: Q01DX009 (ip), vehicle: Klucel (hydroxypropylcellulose) (HPC)
[12] = endpoint: mean survival time, dose: 100.0 mg/kg/injection, schedule: Q04DX003 (ip), vehicle: Klucel (hydroxypropylcellulose) (HPC)
[13] = endpoint: mean survival time, dose: 200.0 mg/kg/injection, schedule: Q04DX003 (ip), vehicle: Klucel (hydroxypropylcellulose) (HPC)
[14] = endpoint: mean survival time, dose: 400.0 mg/kg/injection, schedule: Q04DX003 (ip), vehicle: Klucel (hydroxypropylcellulose) (HPC)
[15] = endpoint: mean survival time, dose: 100.0 mg/kg/injection, schedule: Q01DX001 (ip), vehicle: saline with Tween-80
[16] = endpoint: mean survival time, dose: 200.0 mg/kg/injection, schedule: Q01DX001 (ip), vehicle: saline with Tween-80
[17] = endpoint: mean survival time, dose: 400.0 mg/kg/injection, schedule: Q01DX001 (ip), vehicle: saline with Tween-80
[18] = endpoint: mean survival time, dose: 100.0 mg/kg/injection, schedule: Q04DX003 (ip), vehicle: saline
[19] = endpoint: mean survival time, dose: 200.0 mg/kg/injection, schedule: Q01DX009 (ip), vehicle: saline with Tween-80
[20] = endpoint: mean survival time, dose: 400.0 mg/kg/injection, schedule: Q01DX009 (ip), vehicle: saline with Tween-80
[21] = endpoint: mean survival time, dose: 12.5 mg/kg/injection, schedule: Q01DX005 (ip), vehicle: other
[22] = endpoint: mean survival time, dose: 25.0 mg/kg/injection, schedule: Q01DX005 (ip), vehicle: other
[23] = endpoint: mean survival time, dose: 50.0 mg/kg/injection, schedule: Q01DX005 (ip), vehicle: other

Measured: T/C

NC(=O)c1[nH]nc(C2OC(COP(=O)(O)O)C(O)C2O)c1O (stereo not drawn)
inactive: endpoint: median survival time, dose: 6.25 mg/kg/injection, schedule: Q01DX005 (ip), vehicle: saline 122 % of control | endpoint: median survival time, dose: 12.5 mg/kg/injection, schedule: Q01DX005 (ip), vehicle: saline 93 % of control | endpoint: median survival time, dose: 25.0 mg/kg/injection, schedule: Q01DX005 (ip), vehicle: saline 93 % of control

Cc1ccccc1NC(=O)Oc1c(C)cccc1C
inactive: [1] 97 % of control | [2] 101 % of control | [3] 101 % of control

OC1CC2CC2CC1O (stereo not drawn)
inactive: [4] 103 % of control | [5] 92 % of control | [6] 96 % of control

O=C1C=C(NNc2ccccc2)CCC1
inactive: [7] 104 % of control | [8] 100 % of control

O=c1nc(Sc2ccccc2)ccn1C1OC(CO)C(O)C1O (stereo not drawn)
inactive: endpoint: mean survival time, dose: 12.5 mg/kg/injection, schedule: Q01DX005 (ip), vehicle: distilled water + Tween-80 106 % of control | endpoint: mean survival time, dose: 25.0 mg/kg/injection, schedule: Q01DX005 (ip), vehicle: distilled water + Tween-80 103 % of control | endpoint: mean survival time, dose: 50.0 mg/kg/injection, schedule: Q01DX005 (ip), vehicle: distilled water + Tween-80 106 % of control | endpoint: mean survival time, dose: 100.0 mg/kg/injection, schedule: Q01DX005 (ip), vehicle: distilled water + Tween-80 110 % of control | endpoint: mean survival time, dose: 200.0 mg/kg/injection, schedule: Q01DX005 (ip), vehicle: distilled water + Tween-80 118 % of control

CCCCCC(O)CCCCC
inactive: [4] 98 % of control | [5] 94 % of control | [6] 98 % of control

O=C(O)CC(=O)O.OC(CN=Cc1ccccc1)CN=Cc1ccccc1.[Pt] (stereo not drawn)
inactive: endpoint: median survival time, dose: 10.0 mg/kg/injection, schedule: Q04DX003 (ip), vehicle: distilled water + Tween-80 103 % of control | endpoint: median survival time, dose: 20.0 mg/kg/injection, schedule: Q04DX003 (ip), vehicle: distilled water + Tween-80 104 % of control | endpoint: median survival time, dose: 40.0 mg/kg/injection, schedule: Q04DX003 (ip), vehicle: distilled water + Tween-80 102 % of control | endpoint: median survival time, dose: 80.0 mg/kg/injection, schedule: Q04DX003 (ip), vehicle: distilled water + Tween-80 116 % of control and 105 % of control | endpoint: median survival time, dose: 160.0 mg/kg/injection, schedule: Q04DX003 (ip), vehicle: distilled water + Tween-80 108 % of control | endpoint: median survival time, dose: 320.0 mg/kg/injection, schedule: Q04DX003 (ip), vehicle: distilled water + Tween-80 109 % of control

CCOc1ccccc1OC(=O)Nc1ccc(OC)cc1
inactive: endpoint: mean survival time, dose: 25.0 mg/kg/injection, schedule: Q01DX009 (ip), vehicle: saline with Tween-80 97 % of control | [9] 114 % of control | [7] 89 % of control | [10] 104 % of control | [8] 97 % of control | [1] 94 % of control and 107 % of control | [3] 98 % of control

O=C(N/N=C\c1c(Cl)cccc1Cl)c1ccccc1
inactive: [11] 94 % of control | [12] 100 % of control | endpoint: mean survival time, dose: 200.0 mg/kg/injection, schedule: Q01DX009 (ip), vehicle: Klucel (hydroxypropylcellulose) (HPC) 96 % of control | [13] 100 % of control | [14] 96 % of control

O=[N+]([O-])c1cccc(S(=O)(=O)N2CCCCC2)c1
inactive: [10] 95 % of control | [1] 87 % of control | [2] 95 % of control | [3] 91 % of control

C#CCOCC(O)C[As](=O)(O)c1cccc(Cl)c1 (stereo not drawn)
inactive: endpoint: mean survival time, dose: 6.25 mg/kg/injection, schedule: Q04DX003 (ip), vehicle: saline 104 % of control

Oc1ccccc1C=NCCN=Cc1ccccc1O
inactive: [4] 90 % of control | [5] 100 % of control | [6] 92 % of control

C1CCC(N=C(NC2CCCCC2)NC2CCCCC2)CC1
inactive: [4] 109 % of control | [5] 100 % of control

c1ccc(N/N=C(/CC/C(=N\Nc2ccccc2)c2ccccc2)c2ccccc2)cc1
inactive: [15] 96 % of control | [16] 96 % of control | [17] 93 % of control

C(=N/c1ccccn1)/c1ccc(/C=N\c2ccccn2)cc1
inactive: [12] 94 % of control | [13] 94 % of control | [14] 102 % of control

CC(=O)NNC(=O)c1ccccc1
inactive: endpoint: mean survival time, dose: 50.0 mg/kg/injection, schedule: Q01DX009 (ip), vehicle: other 95 % of control and 105 % of control | endpoint: mean survival time, dose: 100.0 mg/kg/injection, schedule: Q01DX009 (ip), vehicle: other 97 % of control and 108 % of control | endpoint: mean survival time, dose: 200.0 mg/kg/injection, schedule: Q01DX009 (ip), vehicle: other 93 % of control and 97 % of control | endpoint: mean survival time, dose: 300.0 mg/kg/injection, schedule: Q01DX009 (ip), vehicle: other 90 % of control

CCN(CC)C(=O)c1ccc[n+](Cc2ccc(Cl)c(Cl)c2)c1
inactive: [18] 103 % of control

COc1cc(OC)c(NC(=O)OCCSc2ccc(Cl)cc2)cc1Cl
inactive: [7] 92 % of control | [8] 92 % of control | [19] 92 % of control

COc1ccc2occc2c1
inactive: [4] 94 % of control | [5] 94 % of control | [6] 91 % of control

c1cc2c3c(c1)CCC3CCC2 (stereo not drawn)
inactive: [8] 96 % of control | [19] 101 % of control | [20] 90 % of control

CN(N=C(C1CC1)C1CC1)c1ccccc1
inactive: [15] 100 % of control | [16] 107 % of control | [17] 105 % of control

COc1cc2c(oc(=O)c3cc(C)cc(OC)c32)c2c(C3OC(C)C(O)C(C)(O)C3O)ccc(O)c12 (stereo not drawn)
inactive: endpoint: median survival time, dose: 3.12 mg/kg/injection, schedule: Q01DX005 (ip), vehicle: DMSO 109 % of control and 110 % of control | endpoint: median survival time, dose: 6.25 mg/kg/injection, schedule: Q01DX005 (ip), vehicle: DMSO 108 % of control and 110 % of control | endpoint: median survival time, dose: 12.5 mg/kg/injection, schedule: Q01DX005 (ip), vehicle: DMSO 121 % of control and 103 % of control and 109 % of control | endpoint: median survival time, dose: 25.0 mg/kg/injection, schedule: Q01DX005 (ip), vehicle: DMSO 113 % of control and 118 % of control and 109 % of control | endpoint: median survival time, dose: 50.0 mg/kg/injection, schedule: Q01DX005 (ip), vehicle: DMSO 116 % of control and 112 % of control | endpoint: median survival time, dose: 100.0 mg/kg/injection, schedule: Q01DX005 (ip), vehicle: DMSO 121 % of control

CC1=C(NNS(=O)(=O)c2ccc(C)cc2)CCCC1=O
inactive: [9] 94 % of control | [10] 97 % of control | [1] 91 % of control and 96 % of control

O=[N+]([O-])c1ccc2nc3c(nc2c1)-c1cccc2cccc-3c12
inactive: [8] 98 % of control | [19] 98 % of control | [20] 98 % of control

CC1(CC(C)(C)C2CCCCC2)OCCO1
inactive: endpoint: mean survival time, dose: 25.0 mg/kg/injection, schedule: Q01DX009 (ip), vehicle: Klucel (hydroxypropylcellulose) (HPC) 93 % of control | endpoint: mean survival time, dose: 50.0 mg/kg/injection, schedule: Q01DX009 (ip), vehicle: Klucel (hydroxypropylcellulose) (HPC) 95 % of control | [11] 91 % of control

O=C1C=C(Cl)C(=O)N1c1cccc(Cl)c1
inactive: endpoint: mean survival time, dose: 6.25 mg/kg/injection, schedule: Q04DX003 (ip), vehicle: saline with Tween-80 104 % of control | endpoint: mean survival time, dose: 12.5 mg/kg/injection, schedule: Q04DX003 (ip), vehicle: saline with Tween-80 95 % of control | endpoint: mean survival time, dose: 25.0 mg/kg/injection, schedule: Q04DX003 (ip), vehicle: saline with Tween-80 95 % of control

O=C1c2ccccc2C(c2ccccc2)(c2ccccc2)N1c1ccccc1
inactive: [4] 107 % of control | [5] 104 % of control | [6] 107 % of control

Cc1nc(C)c(Br)s1
inactive: endpoint: mean survival time, dose: 25.0 mg/kg/injection, schedule: Q04DX003 (ip), vehicle: saline 112 % of control | endpoint: mean survival time, dose: 50.0 mg/kg/injection, schedule: Q04DX003 (ip), vehicle: saline 104 % of control | [18] 106 % of control

NC(=S)N/N=C/c1cc(Cl)c2nc(-c3ccccc3)ccc2c1
inactive: [4] 104 % of control | [5] 102 % of control | [6] 104 % of control

CCOc1c(NCCO)c2cc(Cl)ccc2oc1=O
inactive: [15] 95 % of control | [16] 87 % of control | [17] 97 % of control

CCCCCC(=O)NNc1nc(N)nc2nonc12
inactive: endpoint: mean survival time, dose: 6.25 mg/kg/injection, schedule: Q01DX005 (ip), vehicle: other 109 % of control | [21] 97 % of control | [22] 105 % of control | [23] 97 % of control | endpoint: mean survival time, dose: 100.0 mg/kg/injection, schedule: Q01DX005 (ip), vehicle: other 100 % of control

[CH3][Sn]1([CH3])[O]C2C(CO)OC(n3ccc(=O)[nH]c3=O)C2[O]1 (stereo not drawn)
inactive: [21] 95 % of control | [22] 101 % of control | [23] 92 % of control
